Laboratory results published in ChEMBL document CHEMBL1177747, “Cytotoxic flavonoids as agonists of peroxisome proliferator-activated receptor gamma on human cervical and prostate cancer cells” (J Nat Prod, 2010).
pIC50: −log10 of the molar value.

How the values were obtained:
[1] = target: T1, Peroxisome proliferator-activated receptor gamma (Homo sapiens) (UniProt P37231); assay: Agonist activity at human PPARgamma expressed in Escherichia coli BL21 assessed as stimulation of binding between receptor and steroid receptor coactivator-1 at 320 uM by ELISA relative to untreated control
T1 sequence (whole entry): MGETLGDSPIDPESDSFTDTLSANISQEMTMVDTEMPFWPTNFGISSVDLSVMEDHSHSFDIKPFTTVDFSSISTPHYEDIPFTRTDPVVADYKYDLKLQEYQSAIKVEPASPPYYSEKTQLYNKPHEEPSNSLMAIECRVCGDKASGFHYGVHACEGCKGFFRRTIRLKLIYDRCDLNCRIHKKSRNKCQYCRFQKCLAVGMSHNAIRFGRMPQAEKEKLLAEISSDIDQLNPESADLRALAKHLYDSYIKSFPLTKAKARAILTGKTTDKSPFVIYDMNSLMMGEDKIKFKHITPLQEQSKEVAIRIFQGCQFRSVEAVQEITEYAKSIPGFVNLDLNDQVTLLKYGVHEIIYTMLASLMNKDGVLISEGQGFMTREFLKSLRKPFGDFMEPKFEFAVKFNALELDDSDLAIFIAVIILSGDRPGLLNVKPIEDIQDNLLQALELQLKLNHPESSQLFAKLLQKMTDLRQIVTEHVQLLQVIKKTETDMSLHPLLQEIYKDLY

[2] = target: T1, Peroxisome proliferator-activated receptor gamma (Homo sapiens); assay: Binding affinity to human PPARgamma expressed in Escherichia coli BL21 assessed as binding constant by fluorescence quenching assay
[3] = tested on: HeLa; assay: Cytotoxicity against human HeLa cells after 48 hrs by MTT assay; assay type: functional, cell-based
[4] = tested on: MCF7; assay: Cytotoxicity against human MCF7 cells after 48 hrs by MTT assay; assay type: functional, cell-based; conditions: MCF7, 48 h
[5] = tested on: MDA-MB-231; assay: Cytotoxicity against human MDA-MB-231 cells after 48 hrs by MTT assay; assay type: functional, cell-based; conditions: MDA-MB-231, 48 h
[6] = tested on: PC-3; assay: Cytotoxicity against human PC3 cells after 48 hrs by MTT assay; assay type: functional, cell-based; conditions: PC-3, 48 h
[7] = tested on: A549; assay: Cytotoxicity against human A549 cells after 48 hrs by MTT assay; assay type: functional, cell-based; conditions: A549, 48 h
[8] = target: T1, Peroxisome proliferator-activated receptor gamma (Homo sapiens); assay: Agonist activity at human PPARgamma expressed in Escherichia coli BL21 assessed as stimulation of binding between receptor and steroid receptor coactivator-1 by ELISA

Row | fold change (FC) [1] | K [2] [×10⁵ /M] | Activity [8] | SMILES | pIC50 [3] | pIC50 [4] | pIC50 [5] | pIC50 [6] | pIC50 [7]
1 | 2 | 3.39 |  | COc1ccc2c(c1)c(CC(=O)O)c(C)n2C(=O)c1ccc(Cl)cc1 [INDOMETHACIN] | 4.30 | < 4.00 | < 4.00 | < 4.00 | < 4.00
2 | 7 | 2.36 | Dose-dependent effect | O=c1c(O)c(-c2ccccc2)oc2ccc(O)cc12 | 4.90 | < 4.00 | < 4.00 | 4.30 | 4.00
